Measurements as given in patent publication US20250134892A1, “COMBINATION OF COMPOUNDS FOR TREATING VASCULAR DISEASES COMPRISING PDE5 INHIBITOR, ARGININE AND N-ACETYLCYSTEINE” (Future Pharmtech Inc., priority 2022, published 2025).
Read-outs that look alike come from different tables or passages of the source.

Legend:
[1] = test system: Human umbilical vein endothelial cells (HUVEC); assay: Nitric oxide release amount from endothelial cells (NO assay kit); assay type: cell-based; conditions: vascular endothelial cells; for release amount of nitric oxide compared with control group (drug treatment for 0 min): 100 nM sildenafil
Protocol: Sildenafil, arginine, N-acetylcysteine, and S-nitroso-N-acetylpenicillamine (SNAP) are dissolved and diluted in phosphate buffered saline (PBS). […] The solutions are stored at a temperature of 4° C. […] Human umbilical vein endothelial cells (HUVEC) obtained from Bioresource Collection and Research Center (Hsinchu, Taiwan) were cultured in Ham's F-12K (Sigma-Aldrich) with endothelial cell growth supplement (Millipore), heparin (Sigma-Aldrich), 2.2 mg/mL sodium bicarbonate, and 10% FBS (Gibco). HUVEC at passage 5 to 15 were used in all applications. Human pulmonary artery vascular smooth muscle (PAVSM) cells and growth media were obtained from Lonza Inc. (Walkersville, MD., USA). Cells were grown in a 5% CO2 atmosphere at 37° C. For cell treatments, HUVEC and PAVSM cells were grown in confluence respectively on the upper and lower wells of Transwell® units. Culture medium volume in each upper chamber was 1.5 mL, and in each lower chamber was 2.5 mL. […] All supernatants of HUVEC and PAVSM were collected right after the treatments for the NO amount analysis. HUVEC cells and PAVSM cells were rinsed in ice-cold phosphate buffered saline and then solubilized in ice-cold 6% trichloroacetic acid for the protein extraction. Samples were stored at −80° until the assays. Analysis of Nitric Oxide Release Amount from Endothelial Cells The nitric oxide amount was assessed using the NO assay kit (Promega). After treatment, the supernatants of HUVEC were collected for the NO assay reagent kit, and 200 μL per well was applied according to the manufacturer's instructions. Relative Luminance Unit (RLU) emitted by the product was measured using a microreader.

[2] = test system: Endothelial nitric oxide synthase (eNOS); assay: Expression amount of endothelial nitric oxide synthase (eNOS assay kit); assay type: cell-based, Human; conditions: vascular endothelial cells, treatment 10 min (FIG. 3)
Protocol: Sildenafil, arginine, N-acetylcysteine, and S-nitroso-N-acetylpenicillamine (SNAP) are dissolved and diluted in phosphate buffered saline (PBS). […] The solutions are stored at a temperature of 4° C. […] Human umbilical vein endothelial cells (HUVEC) obtained from Bioresource Collection and Research Center (Hsinchu, Taiwan) were cultured in Ham's F-12K (Sigma-Aldrich) with endothelial cell growth supplement (Millipore), heparin (Sigma-Aldrich), 2.2 mg/mL sodium bicarbonate, and 10% FBS (Gibco). HUVEC at passage 5 to 15 were used in all applications. Human pulmonary artery vascular smooth muscle (PAVSM) cells and growth media were obtained from Lonza Inc. (Walkersville, MD., USA). Cells were grown in a 5% CO2 atmosphere at 37° C. For cell treatments, HUVEC and PAVSM cells were grown in confluence respectively on the upper and lower wells of Transwell® units. Culture medium volume in each upper chamber was 1.5 mL, and in each lower chamber was 2.5 mL. […] All supernatants of HUVEC and PAVSM were collected right after the treatments for the NO amount analysis. […] Analysis of Expression Amount of Endothelial Nitric Oxide Synthase Endothelial nitric oxide synthase (eNOS) activity was assessed using the eNOS assay kit (Promega). […] Relative Luminance Unit (RLU) emitted by the product was measured using a microreader.

[3] = test system: Human pulmonary artery vascular smooth muscle (PAVSM) cells; assay: cGMP in smooth muscle cells (cGMP immunoassay); assay type: cell-based; conditions: for amount of cGMP compared with control group (drug treatment for 0 min): 100 nM sildenafil
Protocol: Sildenafil, arginine, N-acetylcysteine, and S-nitroso-N-acetylpenicillamine (SNAP) are dissolved and diluted in phosphate buffered saline (PBS). […] The solutions are stored at a temperature of 4° C. […] Human umbilical vein endothelial cells (HUVEC) obtained from Bioresource Collection and Research Center (Hsinchu, Taiwan) were cultured in Ham's F-12K (Sigma-Aldrich) with endothelial cell growth supplement (Millipore), heparin (Sigma-Aldrich), 2.2 mg/mL sodium bicarbonate, and 10% FBS (Gibco). HUVEC at passage 5 to 15 were used in all applications. Human pulmonary artery vascular smooth muscle (PAVSM) cells and growth media were obtained from Lonza Inc. (Walkersville, MD., USA). Cells were grown in a 5% CO2 atmosphere at 37° C. For cell treatments, HUVEC and PAVSM cells were grown in confluence respectively on the upper and lower wells of Transwell® units. Culture medium volume in each upper chamber was 1.5 mL, and in each lower chamber was 2.5 mL. […] All supernatants of HUVEC and PAVSM were collected right after the treatments for the NO amount analysis. HUVEC cells and PAVSM cells were rinsed in ice-cold phosphate buffered saline and then solubilized in ice-cold 6% trichloroacetic acid for the protein extraction. Samples were stored at −80° until the assays. Analysis of cGMP in Smooth Muscle Cells […] Nitric Oxide-Cyclic GMP Signaling Pathway as an Illustrative Example and Derivation of the General Case; PLOS COMPUTATIONAL BIOLOGY, DOI:10.1371/journal.pcbi.1004822 Mar. 17, 2016). cGMP formation was measured by immunoassay according to the cGMP Assay (Cayman Chemical Co., Ann Arbor, MI).

HUVEC [4] = assay: Quantitative free radical ROS content (Cm-H2DCFDA); assay type: cell-based, Human; conditions: vascular endothelial cells, treatment 10 min (FIG. 6)
Protocol: (§1) Sildenafil, arginine, N-acetylcysteine, and S-nitroso-N-acetylpenicillamine (SNAP) are dissolved and diluted in phosphate buffered saline (PBS). […] The solutions are stored at a temperature of 4° C.
(§2) Human umbilical vein endothelial cells (HUVEC) obtained from Bioresource Collection and Research Center (Hsinchu, Taiwan) were cultured in Ham's F-12K (Sigma-Aldrich) with endothelial cell growth supplement (Millipore), heparin (Sigma-Aldrich), 2.2 mg/mL sodium bicarbonate, and 10% FBS (Gibco). HUVEC at passage 5 to 15 were used in all applications. Human pulmonary artery vascular smooth muscle (PAVSM) cells and growth media were obtained from Lonza Inc. (Walkersville, MD., USA). Cells were grown in a 5% CO2 atmosphere at 37° C.
For cell treatments, HUVEC and PAVSM cells were grown in confluence respectively on the upper and lower wells of Transwell® units. […]
Detection Mode of Quantitative Free Radical ROS Content
ROS detection studies were performed using a Cm-H2DCFDA ROS detection kit (Invitrogen, Grand Island, NY, USA). […] ROS generation was measured every 10 min up to 2 h with a micro-reader at 490 nm excitation, 530 nm emission. […] Samples were then measured immediately using a Promega microreader. ROS levels generated by 2.5×10^4 viable treated cells were expressed as the percentage of ROS produced by an equal number of viable negative control cells.

HUVEC [5] = assay: Vascular fibrosis index: lipid peroxidation (malondialdehyde, MDA); assay type: cell-based, Human; conditions: vascular endothelial cells, treatment 10 min (FIG. 7)
Protocol: as §1, §2
For cell treatments, HUVEC and PAVSM cells were grown in confluence respectively on the upper and lower wells of Transwell® units. Culture medium volume in each upper chamber was 1.5 mL, and in each lower chamber was 2.5 mL. […]
Lipid peroxidation in HUVEC protein extracts was quantified measuring the concentration of MDA by a spectrofluorometric assay using an “MDA assay kit” as described by Richard et al., 1992 (Richard et al. 1992). Quantification was achieved by parallel measurements of a standard curve of known MDA concentrations, and results were expressed as level change of the control.

HUVEC [6] = assay: Vascular permeability analysis: VEGF-A release content; assay type: cell-based, Human; conditions: vascular endothelial cells, treatment 10 min (FIG. 8)
Protocol: as §1, §2
For cell treatments, HUVEC and PAVSM cells were grown in confluence respectively on the upper and lower wells of Transwell® units. Culture medium volume in each upper chamber was 1.5 mL, and in each lower chamber was 2.5 mL. Confluent HUVEC cells were treated with regular medium in the presence or absence of S, SS, SN, SSN and SAN for 0, 10, 20, 30 and 60 min. All supernatants of HUVEC and PAVSM were collected right after the treatments for the NO amount analysis. […]
VEGFA amount was assessed using the VEGFA assay kit (Promega). […] Relative Absorbance Unit at 540 nm emitted by the product was measured using a microreader.

[7] = sildenafil alone, healthy elderly subjects (65 years or older); cited from earlier work
erectile dysfunction = conditions: sildenafil alone, placebo 25%, cited from earlier work

With `CCCc1nn(C)c2c(=O)[nH]c(-c3cc(S(=O)(=O)N4CCN(C)CC4)ccc3OCC)nc12` [SILD, sildenafil] the “release amount of nitric oxide compared with control group (drug treatment for 0 min)” value ([1]; treatment 10 min (FIG. 1)) was “about 1.6 folds”, the “release amount of nitric oxide compared with control group (drug treatment for 0 min)” value ([1]; treatment 20 min (FIG. 1)) was “about 2.6 folds” and the “release amount of nitric oxide compared with control group (drug treatment for 0 min)” value ([1]; treatment 30 min (FIG. 1)) was “about 3.1 folds”. The “release amount of nitric oxide compared with control group (drug treatment for 0 min)” value ([1]; treatment 60 min (FIG. 1)) was “about 3.5 folds”, the “release amount of nitric oxide compared with control group (with no drug)” value ([1]; 10-min drug treatment (FIG. 2)) was “about 1.6 folds” and the “expression amount of nitric oxide synthase compared with control group (with no drug)” value [2] was “about 2 folds”. The “amount of cGMP compared with control group (drug treatment for 0 min)” value ([3]; treatment 10 min (FIG. 4)) was “about 2.6 folds”, the “amount of cGMP compared with control group (drug treatment for 0 min)” value ([3]; treatment 20 min (FIG. 4)) was about 3 folds and the “amount of cGMP compared with control group (drug treatment for 0 min)” value ([3]; treatment 30 min (FIG. 4)) was about 4.7 folds. The “amount of cGMP compared with control group (drug treatment for 0 min)” value ([3]; treatment 60 min (FIG. 4)) was about 5.5 folds, the “amount of cGMP compared with control group (with no drug)” value ([3]; 10-min treatment (FIG. 5)) was “about 2.6 folds” and the “amount of ROS compared with control group (with no drug treatment)” value (HUVEC [4]) was “about 2.8 folds”. The “amount of MDA compared with control group (with no drug treatment)” value (HUVEC [5]) was “about 2.8 folds”, the “amount of VEGFA compared with control group (with no drug treatment)” value (HUVEC [6]) was “about 3.9 folds” and the “clearance rate in elderly subjects” value [7] was “decreased”. The “proportion of disease improvement” value (erectile dysfunction; 25 mg) was 62%, the “proportion of disease improvement” value (erectile dysfunction; 50 mg) was 74% and the “proportion of disease improvement” value (erectile dysfunction; 100 mg) was 82%.
